This is an account of results in patent US20200390755A1, “COMPOUND FOR TREATING NERVOUS SYSTEM DISEASES AND USE THEREOF” (SHAANXI MICOT TECHNOLOGY CO., LTD., priority 2018, published 2020).

Experiment [1] deals with T1, TrkB receptor (Mus musculus, UniProt P15209).
T1 construct: The culture continued until the primary cortical neuron cells mature; endogenous in cells; host or cells: primary cortical neurons from E18 mouse embryos (N171-82Q WT male x B6C3F1/J female)
In words: Western blotting of p-TrkB and t-TrkB in primary cortical neuron cells. It is filed as cell-based. The conditions noted are these: 500 nM, 10 min at 37° C., Vehicle = 100, n = 3. The protocol: (§1) N171-82Q WT male mice were mated with female B6C3F1/J hybrid mice. B6C3F1/J mice 18 days after pregnancy were anesthetized with isoflurane and dissected to remove embryos, which were then placed in a 10 cm Petri dish containing Leibovitz's buffer. The head of the embryo was cut off, and the brain was peeled off to obtain the whole mouse brain, which was then placed in a new 10 cm Petri dish containing Leibovitz's buffer. The neurocortex of the brain was separated and placed in a 15 mL centrifuge tube containing 3 mL Leibovitz's buffer. The centrifuge tube was centrifuged at 1000 rpm for 1 minute, and the Leibovitz's buffer was gently removed from the centrifuge tube, and then 750 μL of 0.25% trypsin-EDTA and 75 μL of 0.1% DNase (2000 U/mL) were added to digest at 37° C. for 15 min. 750 μL of DMEM medium containing 5% FBS was added to stop the digestion. The cells were mixed well, and centrifuged at 1000 rpm for 5 minutes. Trypins/DNase mixture was removed, and 750 μL of Neurobasal medium (B-27, Glutamax, P/S) was added. The cells were mixed by gently pipetting with a pipette for 30 times. The cell suspension was filtered with a 40 µm filter and transferred to another new 50 mL centrifuge tube. 10 μL of the cell suspension was added to 90 μL of DMEM (diluted 10 times), and 10 μL of the liquid mixture was placed on a hemocytometer so that the suspension filled between the cover slip and the counting plate for counting. The cells in the four large grids of the plate were counted, wherein for the cells across the line, only the cells on the left and upper side lines were counted. The following formulas were used:
(§2) Number of cells/mL=total number of cells in the four large grids/4×10^4/mL
(§3) Total number of cells/mL=total number of cells in the four large grids/4×10^4/mL×dilution factor.
(§4) After counting, the cells were diluted with Neurobasal selection medium so that 1 mL of Neurobasal culture medium contained 0.5×10^6 cells.
(§5) 200 μL of PDL solution previously heated in a 37° C. water bath was added to each well of a 6-well plate, and incubated at 37° C. overnight to allow PDL to evenly coat the well plate. The PDL solution was absorbed and the plate was washed twice with PBS. Before use, the PBS remaining on the plate was absorbed and the cover was opened to dry the plate in a super clean bench. 2 mL of cell suspension was added to each well (37° C., 5% CO2), and the cells were cultured until adherence. The culture medium was replaced and the culture continued for 3 days, and then the growth status of neurons was observed. Every other 3 days, half of the medium was removed and replaced with fresh complete medium. The culture continued until the primary cortical neuron cells mature (usually mature on the 14th day of culture).
(§6) After the primary cortical neuron cells have matured, appropriate amount of freshly prepared culture medium was added until final volume in each well was 2 mL. The experiment included a blank control group (Vehicle), a positive control group BDNF (10 ng/mL), a control compound group (500 nM), and 6 test compound groups (500 nM). Three repeats were set for each dose. After incubating at 37° C. for 10 min, the culture solution was discarded and the cells were washed with pre-chilled PBS, and then 40 μL of pre-chilled lysate (RIPA buffer 10 mL and protease and phosphatase inhibitor 100 μL) was added to each well for lysis on ice for 30 min. After lysis, the cell was crushed by ultrasonic cell crusher, centrifuged at 14000 rpm for 20 min at 4° C. The supernatant was transferred to a new 1.5 mL centrifuge tube to extract protein. Western blotting experiments were used to detect the protein levels of (A) p-TrkB and t-TrkB; (B) p-AKT and t-AKT.
(§7) The software Sigmaplot 13.0 was used for statistical analysis of the data, and the data of each group was expressed as mean±standard error (x±SEM). […]
A general note: A western blot detects proteins with antibodies after separation by electrophoresis.

The subject of experiment [2] is AKT signaling pathway. In words: Western blotting of p-AKT and t-AKT in primary cortical neuron cells. It is filed as cell-based, mouse. The note with it: 500 nM, 10 min at 37° C., Vehicle = 100, n = 3. The protocol: as §1, §2, §3, §4, §5, §6, §7
Experiment [3] relates to rats with permanent cerebral ischemia. The experiment in a line: Cerebral infarction volume by TTC staining in rats with permanent cerebral ischemia. The experiment is classed as in vivo, SD rats. The note with it: 20 mg/kg by gavage, after 7 days of ischemia. The protocol: SD rats, male, about 220-250 g, were provided by the Experimental Animal Center of Medical College of Xi'an Jiaotong University. Rats were randomly divided into groups of 14 animals/group. The experiment included a sham group, a model group, a positive control Edaravone group and test compound groups 1-5.12 hours before the operation, the rats were fasted and were free to drink water, and then used for the modeling method of middle cerebral artery occlusion with thread plug. The rats were fixed on a wooden board after anesthesia, the common carotid artery was ligated proximally, the external carotid artery was ligated distally, and the main internal carotid artery into skull was retained. A ligature line was reserved at the bifurcation of the internal carotid artery for temporarily clamping the distal end of the internal carotid artery using an arterial clip. A 3-0 nylon thread with a length of 5 cm and a spherical shape with a diameter of 0.3 mm at the tip was inserted into the common carotid artery through a small incision at the bifurcation. The arterial clamp was loosened, and the thread plug was slowly advanced to 18˜20 mm. When there was resistance, the progress of the thread was stopped. At this time, the nylon thread plug entered the middle artery and blocked the blood flow, and then the ischemic phase began. The skin was sutured. In the sham operation group, the same procedure was executed, except that no thread plug was inserted.
Administering was performed at 0 h, 3 h, 6 h and 12 h after ischemia, and then administering was performed once a day for 7 consecutive days. The test compound was prepared into a 4 mg/mL solution with 1% CMC-Na solution and administered by gavage. The edaravone group received an intravenous dose of 0.078 mg/kg.
3) Percentage of cerebral infarction volume after 7 days of ischemia: TTC staining was used to observe the infarct area.
The rats in each group were sacrificed by spinal dislocation […]. The brain tissue was quickly peeled off and placed in the refrigerator at −20° C. to freeze to an appropriate hardness to remove the olfactory bulb, cerebellum and low brain stem. Continuous coronary slices were performed at 1 mm intervals, to obtain a total of 5 slices. The slices were placed in 0.5% triphenyltetrazolium chloride (TTC) in phosphate buffer (pH=7.4) and incubated in a 37° C. incubator without light for 15 min, and then fixed in paraformaldehyde and observed (fixed time should be within 24 h). The normal brain tissue is rosy red, and infarcted brain tissue is pale. After taking the picture, the slice was scanned to save the image. The area of cerebral infarction and the total area of slices were calculated using Image J processing software.
Cerebral infarction volume (%)=(volume of the contralateral hemisphere of the operation−volume of the uninfarcted portion of the hemisphere of the occlusion)/volume of the contralateral hemisphere of the operation×100%
(2) Statistical analysis of data: SPSS18.0 statistical software was used for statistical analysis and the data of each group was expressed as the mean standard error (x±SEM). One-way ANOVA and multiple comparisons between groups were used to compare the averages of measurement data among multiple groups. Rank score test was used for behavioral grading data, and Kaplan-Meier method was used for mortality. P<0.05 was considered statistically significant.

T1 sequence (P15209 32-821): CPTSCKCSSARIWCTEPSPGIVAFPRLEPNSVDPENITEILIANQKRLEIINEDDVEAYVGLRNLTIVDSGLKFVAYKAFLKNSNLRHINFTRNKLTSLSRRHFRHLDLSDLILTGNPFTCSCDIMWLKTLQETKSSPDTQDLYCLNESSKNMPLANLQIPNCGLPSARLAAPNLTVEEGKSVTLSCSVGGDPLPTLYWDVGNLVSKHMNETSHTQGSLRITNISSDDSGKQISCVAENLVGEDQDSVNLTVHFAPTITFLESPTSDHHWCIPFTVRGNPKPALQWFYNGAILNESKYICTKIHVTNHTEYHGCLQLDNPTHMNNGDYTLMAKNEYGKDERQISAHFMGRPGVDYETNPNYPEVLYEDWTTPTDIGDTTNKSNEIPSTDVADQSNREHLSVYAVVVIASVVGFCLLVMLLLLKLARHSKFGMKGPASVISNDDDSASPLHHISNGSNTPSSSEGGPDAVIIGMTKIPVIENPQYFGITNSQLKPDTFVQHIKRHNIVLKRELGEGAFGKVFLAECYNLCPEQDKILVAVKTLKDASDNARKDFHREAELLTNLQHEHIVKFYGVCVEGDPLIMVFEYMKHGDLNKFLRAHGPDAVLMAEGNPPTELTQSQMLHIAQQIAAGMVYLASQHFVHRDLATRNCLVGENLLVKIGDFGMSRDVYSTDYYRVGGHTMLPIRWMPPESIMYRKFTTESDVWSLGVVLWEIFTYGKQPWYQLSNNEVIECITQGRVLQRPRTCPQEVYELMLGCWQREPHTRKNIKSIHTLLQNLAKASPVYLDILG

As to `COc1ccc2c(=O)cc(-c3ccc(N4CCCCC4)cc3)oc2c1OC` [Example 2, 7,8-dimethoxy-2-(4-(piperidin-1-yl)phenyl)-4H-chromen-4-one], in experiment [1], the “Relative intensity of p-TrkB/t-TrkB protein” value is listed as 206.453 ± 7.574. The “Relative intensity of p-AKT/t-AKT protein” value in experiment [2] is reported as 209.651 ± 3.294. In addition, the “Volume percentage of cerebral infarction” value in experiment [3] came to 19.93 ± 8.89%.
Take `CC1(C)CCN(c2ccc(-c3cc(=O)c4ccc(O)c(O)c4o3)cc2)CC1` [Example 4, 2-(4-(4,4-dimethylpiperidin-1-yl)phenyl)-7,8-dihydroxy-4H-chromen-4-one]: the “Relative intensity of p-TrkB/t-TrkB protein” value in experiment [1] was 216.198 ± 8.865. Also, in experiment [2], the “Relative intensity of p-AKT/t-AKT protein” value was found to be 215.698 ± 5.487. Also, the “Volume percentage of cerebral infarction” value in experiment [3] is listed as 21.33 ± 7.68%.
Consider `O=c1cc(-c2ccc(N3CCCCC3)cc2)oc2c(O)c(O)ccc12` [Example 1, 7,8-dihydroxy-2-(4-(piperidin-1-yl)phenyl)-4H-chromen-4-one], for which, in experiment [1], the “Relative intensity of p-TrkB/t-TrkB protein” value came out at 216.727 ± 8.642. The “Relative intensity of p-AKT/t-AKT protein” value in experiment [2] came to 219.663 ± 8.085. Moreover, in experiment [3], the “Volume percentage of cerebral infarction” value stood at 19.58 ± 9.56%.
`CN(C)C1CCN(c2ccc(-c3cc(=O)c4ccc(O)c(O)c4o3)cc2)CC1` [Example 3, 2-(4-(4-(dimethylamino)piperidin-1-yl)phenyl)-7,8-dihydroxy-4H-chromen-4-one]: in experiment [1], the “Relative intensity of p-TrkB/t-TrkB protein” value is reported as 234.685 ± 14.695. Moreover, in experiment [2], the “Relative intensity of p-AKT/t-AKT protein” value is on record as 240.213 ± 8.376. In addition, the “Volume percentage of cerebral infarction” value in experiment [3] came out at 20.93 ± 7.65%.
The like results for `CC1CC(C)CN(c2ccc(-c3cc(=O)c4ccc(O)c(O)c4o3)cc2)C1` (stereo not drawn) [Example 5, 2-(4-(3,5-dimethylpiperidin-1-yl)phenyl)-7,8-dihydroxy-4H-chromen-4-one] were, in that order, 213.254 ± 12.379, 219.904 ± 6.954 and 20.50 ± 6.38%.
